According to patent publication US20260183408A1, “POLYPEPTIDE AND USE THEREOF” (SHENZHEN CHENYANG BIOLOGICAL TECHNOLOGY CO., LTD, priority 2022, published 2026):

Experiments:
[1] = tested on: SPS mice; assay: Fear conditioning, safety learning and recall tests (freezing level); format: in vivo; conditions: treated for 1.5 h, 3 nM intraperitoneally, 100 μl/10 g mouse (FIG. 7 right)
Method: The SPS model was established with male Balb/c mice. The modified SPS protocol was used to comprise a series of stress exposure: 2 hours of restraint stress (inside a 50-mL plastic tube having several air holes), 3 min of rest, 12 min of forced swimming in a transparent glass tank (at about 24° C.), 15 min of rest (drying under a warming lamp), 20 min of predator (rat) odor exposure, followed by ether anesthesia (until the mice completely lost consciousness). Thereafter, the mice are transferred back to their cages with fresh bedding. The control mice were housed in groups and received no stress exposure. After the model establishment, all mice were raised undisturbed for one week.
The fear conditioning, safety learning, and recall tests were carried out in two contexts (the fear conditioning and safety learning tests were carried out in context A; and the recall test was carried out in context B). The shapes and smells provided in contexts A and B were different. Indoor floors were cleaned with 1% acetic acid or 75% ethanol prior to testing. […] After the experiment was completed, the freezing level was manually calculated based on the recorded video. The criterion for a freezing behavior is that if no movement other than normal breathing of a mouse was detected within 2 seconds, then the mouse was considered freezing. […]

[2] = tested on: CRS mice; assay: Open field test (OFT, total distance); format: in vivo, mouse; conditions: single intraperitoneal 3 nmol/g, 1 hour after treatment (FIG. 12)
Method: (§1) The C57BL/6J mice were horizontally fixed for 6 h (from 10 to 16 o'clock) in a first acrylic restraint which is cylindrical and flat-bottomed (25×90 mm) every day for 2 weeks. The filter had several slots which could adapt to the size of each mouse to firmly restrain the mouse and inhibit body movements of the limb and trunk without causing pain. Immediately after being restrained, the mice were sent back to their cages. Unrestrained mice (control) stayed in their cages when no CRS procedure was performed. Neither the control mice nor the CRS mice could have access to food and water during the CRS exposure.
(§2) The C57BL/6J mice were subjected to various stress including restraint (for 4 h), cage tilting (for 45 times, with 12 h each time), light-dark cycle reversal (once), flash (for 12 h), and dirty cage (for 2 times, with 14 h each time). The protocol lasted 6 weeks. Control mice were not subjected to corresponding stress.
(§3) The mice were treated with TAT or TAT-D2R-KL (single intraperitoneal administration at 3 nmol/g in both cases). […]
OFT (for testing the total distance): The mice were acclimated to the experimental environment for 1 h and placed in a chamber of 45 cm×45 cm×30 cm. A video was recorded for 5 min to observe the motional activity of the mice. The total distance covered by the mice was measured, analyzed and expressed in millimeters.

[3] = tested on: CRS mice; assay: Tail suspension test (TST); format: in vivo, mouse; conditions: single intraperitoneal 3 nmol/g, 1 hour after treatment, compared with TAT-treated mice (FIG. 12)
Method: as §1, §2, §3
TST: The mice were suspended with a tape to a position 40 cm above the floor within a rectangular compartment (length 55 cm× width 20 cm× depth 11.5 cm). A video was recorded for a total of 5 minutes, and the immobility time was recorded. […]

[4] = biological target: T1, D2R/5-HT2CR complex (Mus musculus, UniProt P34968); assay: Co-immunoprecipitation of hippocampal tissue of polypeptide-treated SPS mice; format: in vivo; conditions: intraperitoneal, 1.5 h (FIG. 7 left)
T1 construct: from tissue
T1 sequence (P34968 33-459): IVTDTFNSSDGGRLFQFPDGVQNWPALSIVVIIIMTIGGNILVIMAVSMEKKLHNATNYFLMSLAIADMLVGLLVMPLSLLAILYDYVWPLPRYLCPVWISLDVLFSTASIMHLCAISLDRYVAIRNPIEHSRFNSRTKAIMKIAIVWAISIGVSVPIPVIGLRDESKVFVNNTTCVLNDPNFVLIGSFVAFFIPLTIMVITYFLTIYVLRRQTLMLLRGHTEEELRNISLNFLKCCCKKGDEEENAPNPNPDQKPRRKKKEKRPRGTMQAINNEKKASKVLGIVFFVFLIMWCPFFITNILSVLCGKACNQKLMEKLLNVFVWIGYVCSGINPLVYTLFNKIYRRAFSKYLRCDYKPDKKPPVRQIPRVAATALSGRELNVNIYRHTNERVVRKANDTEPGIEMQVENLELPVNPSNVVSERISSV
Method: Co-immunoprecipitation was performed using protein samples (with 100-500 μg protein) from the hippocampal tissue of the Balb/c mice. Mouse monoclonal antibodies against both 5-HT2CR and D2R, D2R, or 5-HT2CR were used for precipitation with 25 μl of the slurry of protein A/G+agarose beads (SantaCruz Biotechnology, sc-2001).
Western blotting analysis after precipitation: Denatured (at 100° C. for 10 min) proteins were separated on an 8% SDS-PAGE gel, then transferred to a nitrocellulose membrane, which was then blocked with skim milk in TBST (Tris-buffered saline with 0.1% Tween 20). Next, incubation was carried out with the primary antibodies at 4° C. overnight. Finally, treatment with an HRP-conjugated secondary antibody were performed for 1 h, signals were detected using the ECL UltraSignal chemiluminescence kit (4A Biotech, cat. no. 4AW011-500), and the bands were analyzed for densities using the Image Lab software.
The SPS model was established with male Balb/c mice. […]
The fear conditioning, safety learning, and recall tests were carried out in two contexts (the fear conditioning and safety learning tests were carried out in context A; and the recall test was carried out in context B). […] After the experiment was completed, the freezing level was manually calculated based on the recorded video. […]

[5] = tested on: CRS mice; assay: Sucrose preference test (SPT); format: in vivo, mouse; conditions: single intraperitoneal 3 nmol/g, compared with TAT-treated mice (FIG. 12)
Method: as §1, §2, §3
SPT (Sucrose preference test): A two-bottle choice paradigm was adopted. […] Finally, the volume of consumed water or sucrose solution was recorded and calculation was carried out with the following equation (I): […]

## TAT-D2R-KL: C-terminus of the KL (K226-L240) region of D2R fused to the transduction domain of HIV-1 Tat protein (SEQ ID NO: 5)
[1]
  freezing level: reduced
[2]
  overall movement ability (total distance): had no effect
[3]
  immobility time (TST): significantly reduced
[4]
  interaction between 5-HT2CR and D2R: decrease
[5]
  sucrose preference: significantly enhanced
